Target: T1, MHV-S HE ectodomain (HE / HE^0) (Murine hepatitis virus strain S, UniProt P31614)
T1 construct: HEK293T or HEK293 GnTI(-); codon-optimized synthetic gene; homodimer
Assay: GC-MS of enzymatic de-O-acetylation
Assay type: biochemical
Details: sialate-4-O-acetylesterase site; thrombin-released ectodomain

T1 sequence (P31614 25-403): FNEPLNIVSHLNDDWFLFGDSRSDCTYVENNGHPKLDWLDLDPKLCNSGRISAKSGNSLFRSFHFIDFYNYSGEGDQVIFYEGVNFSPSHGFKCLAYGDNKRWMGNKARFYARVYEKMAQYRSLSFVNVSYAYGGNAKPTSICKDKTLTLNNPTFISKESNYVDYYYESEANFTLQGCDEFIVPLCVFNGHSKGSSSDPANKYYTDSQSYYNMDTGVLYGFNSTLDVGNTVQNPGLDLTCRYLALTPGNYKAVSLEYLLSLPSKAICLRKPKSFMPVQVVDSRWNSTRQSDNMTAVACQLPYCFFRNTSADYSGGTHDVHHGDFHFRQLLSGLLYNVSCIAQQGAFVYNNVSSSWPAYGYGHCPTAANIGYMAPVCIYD

## CO[C@]1(C(=O)O)C[C@H](OC(C)=O)[C@@H](NC(C)=O)[C@H]([C@H](O)[C@H](O)COC(C)=O)O1 [αNeu4,5,9Ac32Me, 5-N-acetyl-4,9-di-O-acetylneuraminic acid α-methylglycoside]
  GC-MS of enzymatic de-O-acetylation: retained proper sialate-4-O-acetylesterase activity when assayed for substrate specificity with a synthetic di-O-acetylated Sia

Reference: article PMC3266934, “The Murine Coronavirus Hemagglutinin-esterase Receptor-binding Site: A Major Shift in Ligand Specificity through Modest Changes in Architecture” (PLoS Pathogens, 2012)
